Patent US11339157B1, “4H-pyrrolo[3,2-c]pyridin-4-one derivatives” (Bayer Aktiengesellschaft, priority 2017, dated 2022)
Where “and” joins values, the source holds several entries; their conditions need not be identical. Identical values can stand only once. Counter-ions that a name gives are not always drawn.

Columns and labels:
[1] = target: EGFR ins SVD (insertion of SVD between D770 and N771) (Homo sapiens, UniProt P00533, INS767SVD); assay: Exon 20-Mutant-EGFR(D770_N771insSVD) kinase assay (TR-FRET); type: biochemical; details: Table 9; read-out: mutEGFR (D770_N771insSVD) kinase assay IC50
Sequence of EGFR ins SVD (insertion of SVD between D770 and N771) (P00533 with tags, fused parts or gaps INS767SVD limits assumed): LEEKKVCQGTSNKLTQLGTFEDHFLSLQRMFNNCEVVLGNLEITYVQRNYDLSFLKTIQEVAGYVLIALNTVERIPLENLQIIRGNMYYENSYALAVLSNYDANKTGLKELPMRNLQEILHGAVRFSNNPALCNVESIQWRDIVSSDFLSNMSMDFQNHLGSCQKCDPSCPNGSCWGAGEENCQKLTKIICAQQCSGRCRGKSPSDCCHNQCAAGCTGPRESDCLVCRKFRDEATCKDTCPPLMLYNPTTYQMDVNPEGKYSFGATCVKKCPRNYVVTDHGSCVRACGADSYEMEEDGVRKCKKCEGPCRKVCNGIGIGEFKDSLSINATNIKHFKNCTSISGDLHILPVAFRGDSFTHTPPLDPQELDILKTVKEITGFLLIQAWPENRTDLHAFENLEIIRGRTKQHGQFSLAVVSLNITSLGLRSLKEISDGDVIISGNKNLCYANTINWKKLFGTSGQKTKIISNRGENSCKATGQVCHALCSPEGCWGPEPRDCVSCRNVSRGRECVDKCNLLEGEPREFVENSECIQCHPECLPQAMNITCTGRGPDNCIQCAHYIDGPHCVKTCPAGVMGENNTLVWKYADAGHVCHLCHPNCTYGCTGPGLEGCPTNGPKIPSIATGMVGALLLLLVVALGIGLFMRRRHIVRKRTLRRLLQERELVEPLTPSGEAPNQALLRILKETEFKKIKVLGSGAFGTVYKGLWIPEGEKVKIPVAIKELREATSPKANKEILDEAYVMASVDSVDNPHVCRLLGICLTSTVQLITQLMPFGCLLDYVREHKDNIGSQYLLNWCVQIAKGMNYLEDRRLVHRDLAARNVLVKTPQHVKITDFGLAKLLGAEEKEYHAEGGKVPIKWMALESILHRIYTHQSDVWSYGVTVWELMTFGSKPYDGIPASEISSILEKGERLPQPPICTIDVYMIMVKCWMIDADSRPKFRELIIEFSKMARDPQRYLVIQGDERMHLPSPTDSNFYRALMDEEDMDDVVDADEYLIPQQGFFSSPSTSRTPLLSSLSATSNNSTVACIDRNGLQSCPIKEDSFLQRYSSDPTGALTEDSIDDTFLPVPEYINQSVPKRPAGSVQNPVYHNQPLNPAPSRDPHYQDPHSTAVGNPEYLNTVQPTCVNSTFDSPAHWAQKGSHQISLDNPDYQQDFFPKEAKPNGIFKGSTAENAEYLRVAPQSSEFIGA
Procedure: Exon 20-Mutant-EGFR(D770_N771insSVD) Kinase Assay
Inhibitory activity of compounds of the present invention against an Epidermal Growth Factor Receptor (EGFR) with an insertion of the amino acids sequence SVD between D770 and N771 was quantified employing the TR-FRET based kinase activity assay as described in the following paragraphs.
For the assay 50 nl of a 100-fold concentrated solution of the test compound in DMSO was pipetted into either a black low volume 384 well microtiter plate or a black 1536 well microtiter plate (both Greiner Bio-One, Frickenhausen, Germany), 2 μl of a solution of EGFR in aqueous assay buffer [50 mM Hepes pH 7.0, 10 mM MgCl2, 1 mM dithiothreitol, 0.5 mM EGTA, 0.3 mM activated sodium ortho-vanadate, 0.005% (w/v) bovine serum albumin, 0.005% (v/v) Tween-20] were added and the mixture was incubated for 15 min at 22° C. to allow pre binding of the test compounds to the enzyme before the start of the kinase reaction. […] The concentration of EGFR was adjusted depending of the activity of the enzyme lot and was chosen appropriate to have the assay in the linear range, typical concentration was 15 pg/μl. The reaction was stopped by the addition of 3 μl of a solution of HTRF detection reagents (83.3 nM streptavidine-XL665 [Cisbio Bioassays, Codolet, France] and 1.67 nM PT66-Tb-Cryptate, a terbium-cryptate labelled anti-phospho-tyrosine antibody from Cisbio Bioassays [instead of the PT66 Tb cryptate PT66 Eu Chelate from Perkin Elmer can also be used]) in an aqueous EDTA-solution (133.3 mM EDTA, 0.2% (w/v) bovine serum albumin in 50 mM HEPES pH 7.5).
The resulting mixture was incubated 1 h at 22° C. to allow the binding of the biotinylated phosphorylated peptide to the streptavidine-XL665 and the PT66-Tb-Cryptate. Subsequently the amount of phosphorylated substrate was evaluated by measurement of the resonance energy transfer from the PT66-Tb-Cryptate to the streptavidine-XL665.

Ba/F3-EGFR-insSVD cells = assay: Proliferation assay in BA/F3 (ins SVD) cells (Cell Titer-Glo); type: cell-based
Procedure: (§1) Cellular Data Description (WT, insSVD, Ins ASV)
(§2) Plates were incubated at 37° C. for 48 h. Retrovirus was harvested by filtering the media supernatant through a 0.45 μm filter.
(§3) Ba/F3 cells purchased from DSMZ were grown in RPMI+10% FBS+10 ng/mL IL-3 and infected with filtered retroviral supernatant at a 1:2 dilution. Polybrene was added to a concentration of 8 μg/mL, plates were spun for 90 min, and incubated overnight at 37° C. 2 μg/mL puromycin was added to the infected cells 24 h after infection and cells were continually grown in the presence of puromycin and 10 ng/mL IL-3. Following stably expressing Ba/F3 cell lines were generated: Ba/F3-EGFR-WT, Ba/F3-EGFR-insSVD.
(§4) The cells ectopically expressing WT EGFR were plated with 10 ng/mL Millipore Culture grade EGF. The cells ectopically expressing EGFR-insSVD were plated without EGF.
(§5) 100 nL of compound was added to each well using a 100 nL pin head, and plates were incubated at 37° C. for 48 h.
(§6) Cell viability was measured by adding 30 μL of Cell Titer-Glo Luminescent Cell Viability Reagent. Plates were sealed with Perkin Elmer Top-Seal, inverted several times to mix, and immediately centrifuged at 1000 rpm for 2 min. Plates were incubated in low light conditions for 8-10 min and luminescence was measured.

Ba/F3-EGFR-WT cells = assay: Proliferation assay in BA/F3 (wild type) cells (Cell Titer-Glo); type: cell-based
Procedure: as §1, §2, §3, §4, §5, §6

[2] = Mus musculus, BaF3, 48 h, Table 10, plated without EGF
[3] = Mus musculus, BaF3, 48 h, Table 10, plated with 10 ng/mL EGF
[4] = Mus musculus, BaF3, Table 10, plated without EGF, 48 h
[5] = Mus musculus, BaF3, Table 10, plated with 10 ng/mL EGF, 48 h

SMILES | IC50 [1] | IC50 (Ba/F3-EGFR-insSVD cells; [2]) | IC50 (Ba/F3-EGFR-WT cells; [3]) | IC50 (Ba/F3-EGFR-insSVD cells; [4]) | IC50 (Ba/F3-EGFR-WT cells; [5]) | IC50 (Ba/F3-EGFR-insSVD cells; Table 10, plated without EGF, 48 h) | IC50 (Ba/F3-EGFR-WT cells; Table 10, plated with 10 ng/mL EGF, 48 h)
COCCOc1cnccc1-c1[nH]c2c(c1Nc1ccccc1C(F)(F)F)C(=O)NCC2 [Example 47, 2-[3-(2-methoxyethoxy)pyridin-4-yl]-3-[2-(trifluoromethyl)anilino]-1,5,6,7-tetrahydro-4H-pyrrolo[3,2-c]pyridin-4-one] | 0.169 nM | 448 nM | 3240 nM | – | – | – | –
COc1c(Nc2c(-c3ccncc3OCC(C)(C)OC)[nH]c3c2C(=O)NCC3)ccc(F)c1Cl [Example 44, 3-(3-chloro-4-fluoro-2-methoxyanilino)-2-[3-(2-methoxy-2-methylpropoxy)pyridin-4-yl]-1,5,6,7-tetrahydro-4H-pyrrolo[3,2-c]pyridin-4-one] | 0.0922 nM and < 0.0725 nM | 173 nM | 2450 nM | – | – | – | –
Cc1c(F)cc(F)cc1Nc1c(-c2ccncc2OC[C@@H]2CCCN2C)[nH]c2c1C(=O)NCC2 [Example 51, 3-(3,5-difluoro-2-methylanilino)-2-(3-{[(2S)-1-methylpyrrolidin-2-yl]methoxy}pyridin-4-yl)-1,5,6,7-tetrahydro-4H-pyrrolo[3,2-c]pyridin-4-one] | 0.732 nM | – | – | 107 nM | 3290 nM | – | –
Cc1c(F)cc(F)cc1Nc1c(-c2ccncc2OCC(C)(C)N(C)C)[nH]c2c1C(=O)NCC2 [Example 62, 3-(3,5-difluoro-2-methylanilino)-2-{3-[2-(dimethylamino)-2-methylpropoxy]pyridin-4-yl}-1,5,6,7-tetrahydro-4H-pyrrolo[3,2-c]pyridin-4-one] | 0.663 nM | 166 nM | 2760 nM | – | – | – | –
COc1c(Cl)cccc1Nc1c(-c2ccncc2OCC2CCCCO2)[nH]c2c1C(=O)NCC2 (stereo not drawn) [Example 68] | 0.115 nM | 2.94 nM | 109 nM | – | – | – | –
COC(C)(C)COc1cnccc1-c1[nH]c2c(c1Nc1ccccc1Cl)C(=O)NCC2 [Example 39, 3-(2-chloroanilino)-2-[3-(2-methoxy-2-methylpropoxy)pyridin-4-yl]-1,5,6,7-tetrahydro-4H-pyrrolo[3,2-c]pyridin-4-one] | 0.104 nM | 27.5 nM | 661 nM | – | – | – | –
COC(C)(C)COc1cnccc1-c1[nH]c2c(c1Nc1cccc(F)c1OC(F)F)C(=O)NCC2 [Example 83, 3-[2-(difluoromethoxy)-3-fluoroanilino]-2-[3-(2-methoxy-2-methylpropoxy)pyridin-4-yl]-1,5,6,7-tetrahydro-4H-pyrrolo[3,2-c]pyridin-4-one-hydrogen chloride (1/1) Salt] | 0.167 nM | – | – | – | – | 100 nM | 2290 nM
COC(C)(C)COc1cnccc1-c1[nH]c2c(c1Nc1cccc(Cl)c1Br)C(=O)NCC2 [Example 78, 3-(2-bromo-3-chloroanilino)-2-[3-(2-methoxy-2-methylpropoxy)pyridin-4-yl]-1,5,6,7-tetrahydro-4H-pyrrolo[3,2-c]pyridin-4-one] | < 0.0725 nM and 0.0736 nM | 16 nM | 583 nM | – | – | – | –
Cc1c(F)cccc1Nc1c(-c2ccncc2OCC(C)(C)N(C)C)[nH]c2c1C(=O)NCC2 [Example 61, 2-{3-[2-(dimethylamino)-2-methylpropoxy]pyridin-4-yl}-3-(3-fluoro-2-methylanilino)-1,5,6,7-tetrahydro-4H-pyrrolo[3,2-c]pyridin-4-one] | 1.12 nM | 88.9 nM | 1460 nM | – | – | – | –
COc1c(F)cccc1Nc1c(-c2ccncc2OC(C)Cc2ccccc2)[nH]c2c1C(=O)NCC2 (stereo not drawn) [Example 93, 3-(3-fluoro-2-methoxyanilino)-2-{3-[(1-phenylpropan-2-yl)oxy]pyridin-4-yl}-1,5,6,7-tetrahydro-4H-pyrrolo[3,2-c]pyridin-4-one] | 0.277 nM | 468 nM | 3680 nM | – | – | – | –
O=C1NCCc2[nH]c(-c3ccncc3OCC3CCCCO3)c(Nc3cccc(Cl)c3Cl)c21 (stereo not drawn) [Example 69, 3-(2,3-dichloroanilino)-2-{3-[(oxan-2-yl)methoxy]pyridin-4-yl}-1,5,6,7-tetrahydro-4H-pyrrolo[3,2-c]pyridin-4-one] | 0.106 nM | 12.4 nM | 290 nM | – | – | – | –
COc1c(F)cccc1Nc1c(-c2ccncc2OCCOC(C)(C)C)[nH]c2c1C(=O)NCC2 [Example 91, 2-[3-(2-tert-butoxyethoxy)pyridin-4-yl]-3-(3-fluoro-2-methoxyanilino)-1,5,6,7-tetrahydro-4H-pyrrolo[3,2-c]pyridin-4-one] | 0.135 nM | 35.7 nM | 1100 nM | – | – | – | –
COc1c(Cl)cccc1Nc1c(-c2ccncc2OCC(C)(C)OC)[nH]c2c1C(=O)NCC2 [Example 33, 3-(3-chloro-2-methoxyanilino)-2-[3-(2-methoxy-2-methylpropoxy)pyridin-4-yl]-1,5,6,7-tetrahydro-4H-pyrrolo[3,2-c]pyridin-4-one] | 0.225 nM and 0.334 nM and 0.166 nM and 0.161 nM and 0.275 nM and < 0.0725 nM | 9.32 nM | 476 nM | – | – | – | –
COC(C)(C)COc1cnccc1-c1[nH]c2c(c1Nc1cccc(Cl)c1Cl)C(=O)NCC2 [Example 34, 3-(2,3-dichloroanilino)-2-[3-(2-methoxy-2-methylpropoxy)pyridin-4-yl]-1,5,6,7-tetrahydro-4H-pyrrolo[3,2-c]pyridin-4-one] | 0.0946 nM | 7 nM | 278 nM | – | – | – | –
CCOC(C)(C)COc1cnccc1-c1[nH]c2c(c1Nc1cccc(F)c1OC)C(=O)NCC2 [Example 58, 2-[3-(2-ethoxy-2-methylpropoxy)pyridin-4-yl]-3-(3-fluoro-2-methoxyanilino)-1,5,6,7-tetrahydro-4H-pyrrolo[3,2-c]pyridin-4-one] | 0.113 nM | 18.6 nM | 561 nM | – | – | – | –
COC(C)(C)COc1cnccc1-c1[nH]c2c(c1Nc1ccccc1C(F)(F)F)C(=O)NCC2 [Example 42, 2-[3-(2-methoxy-2-methylpropoxy)pyridin-4-yl]-3-[2-(trifluoromethyl)anilino]-1,5,6,7-tetrahydro-4H-pyrrolo[3,2-c]pyridin-4-one] | 0.19 nM | 72.9 nM | 625 nM | – | – | – | –
COc1c(F)cccc1Nc1c(-c2ccncc2OCC(C)(C)N(C)C)[nH]c2c1C(=O)NCC2 [Example 74, 2-{3-[2-(dimethylamino)-2-methylpropoxy]pyridin-4-yl}-3-(3-fluoro-2-methoxyanilino)-1,5,6,7-tetrahydro-4H-pyrrolo[3,2-c]pyridin-4-one] | 0.865 nM | 97.9 nM | 4070 nM | – | – | – | –
COc1c(F)cccc1Nc1c(-c2ccncc2OCC(C)(C)N2CCOCC2)[nH]c2c1C(=O)NCC2 [Example 75, 3-(3-fluoro-2-methoxyanilino)-2-{3-[2-methyl-2-(morpholin-4-yl)propoxy]pyridin-4-yl}-1,5,6,7-tetrahydro-4H-pyrrolo[3,2-c]pyridin-4-one] | 0.903 nM | – | – | 98 nM | 2360 nM | – | –
COc1c(Cl)cccc1Nc1c(-c2ccncc2OCC(C)(C)O)[nH]c2c1C(=O)NCC2 [Example 59, 3-(3-chloro-2-methoxyanilino)-2-[3-(2-hydroxy-2-methylpropoxy)pyridin-4-yl]-1,5,6,7-tetrahydro-4H-pyrrolo[3,2-c]pyridin-4-one] | < 0.0725 nM | 17.7 nM | 542 nM | – | – | – | –
COc1c(Cl)cccc1Nc1c(-c2ccncc2OCCOC(C)(C)C)[nH]c2c1C(=O)NCC2 [Example 87, 2-[3-(2-tert-butoxyethoxy)pyridin-4-yl]-3-(3-chloro-2-methoxyanilino)-1,5,6,7-tetrahydro-4H-pyrrolo[3,2-c]pyridin-4-one] | 0.204 nM | 34.4 nM | 1060 nM | – | – | – | –
